Experimental data reported in patent US20240287614A1, “RECIPROCAL MICRORNA-MRNA PAIRINGS AS BIOMARKERS AND THERAPEUTIC TARGETS IN CANCER” (UNIVERSITY OF MARYLAND, EASTERN SHORE, priority 2023, published 2024).

Legend:
[1] = system: MTOR; experiment: Western blot of mTOR in transfected prostate cancer cells; type: cell-based, human; conditions: mimic transfection vs NS transfection
Description: […] RC77 T/E, a primary prostate cancer cell line derived from a patient, was kindly provided by Dr. Johng Rhim at Center for Prostate Disease Research (CPDR) in Rockville, MD. LNCaP and PC-3 were served as prostate cancer cell line models, and RC77 T/E and MDA PCa 2b were served as prostate cancer cell models in the study. The cells were cultured in specific cell culture media, LNCaP was cultured in RPMI with 10% fetal bovine serum (FBS), PC-3 was cultured in DMEM with 10% FBS, MDA PCa 2b were cultured in BRFF-HPC1 with 20% FBS and RC77 T/E was cultured in Keratinocyte SFM with Human Recombinant Epidermal Growth Factor (EGF 1-53) and Bovine Pituitary Extract (BPE). Cells were maintained at 37° C. in a 5% CO2 incubator. LNCaP, PC-3 and MDA PCa 2b cells were seeded at density 3×10^4 cells/well in 6-well plates. RC77 T/E cells were seeded at density 5×10^4 cells/well in 6-well plates. […]
For measurement of the gene expression at protein level, proteins were extracted using M-PER Mammalian Protein Extraction Reagent (Thermo Fisher Scientific) with protease and phosphatase inhibitor cocktail (Thermo Fisher Scientific). Protein concentrations were quantified using BCA assay kit (Thermo Fisher Scientific). […]

[2] = system: mTOR and pmTOR; experiment: Western blot of mTOR and pmTOR in cytoplasmic and nuclear fractions of colon, breast and lung cancer cells; type: cell-based, human; conditions: breast, lung cancer cells
Excerpt: The human cell lines used in the study included: 22Rv1, LNCaP, PC-3, RC77 T/E and MDA PCa 2b (prostate cancer cell lines), MDA MB 231 and MCF-7 (breast cancer cell lines), HT-29 and SW620 (colon cancer cell lines), A549 and H1299 (lung cancer cell lines). RWPE-1, HMEC, FHC, and BEAS-2B were used as normal control cell lines for prostate, breast, colon, and lung, respectively. Note that 22Rv1 is a castration-resistant […] prostate cancer cell line, while LNCaP and PC-3 were derived from lymph node and bone metastasis of […] prostate cancer patients, respectively. RC77 T/E was derived from a primary prostate cancer patient, and MDA PCa 2b was derived from bone metastasis of an prostate cancer patient. The cell lines described were used as in vitro cell models to evaluate the functional roles of miR-99b-5p/MTOR pairing in the […] prostate cancer, African American prostate cancer and solid tumors in general. The cells were grown in specific cell culture media described as follows: 22Rv1, LNCaP, MCF-7 and H1299 were cultured in RPMI-1640 with 10% fetal bovine serum (FBS), PC-3, A549 and FHC were cultured in DMEM with 10% FBS, RC77 T/E was cultured in Keratinocyte SFM with human recombinant epidermal growth factor (EGF) and bovine pituitary extract (BPE), MDA PCa 2b were cultured in BRFF-HPC1 with 20% FBS, HT-29 was cultured in McCory's with 10% FBS, SW620 and MDA MB 231 were cultured in L-15 with 10% FBS, HMEC was cultured in mammary epithelial cell basal medium with supplements, and BEAS-2B was cultured in BEBM base medium with BEBM supplement kit. Cells were maintained at 37° C. in a 5% CO2 incubator.
The 22Rv1, LNCaP, PC-3, MDA PCa 2b, MCF7, H1299, A549, HT-29, SW620, MDA MB-231, HMEC and BEAS-2B cells were seeded at a density of 3×10^5 cells/well in 6-well plates. RC77 T/E cells were seeded at a density of 5×10^5 cells/well in 6-well plates. The cells were grown for 24 h and then transfected with nonsense/scrambled RNA (NS) and miR-99b-5p mimic (Ambion) using DharmaFECT4 transfection reagent (Dharmacon). After 24 h, fresh media were applied to replace the transfection reagent-containing media, then the cells were incubated for an additional 24 h.
The total proteins were extracted using M-PER extraction reagent with protease and phosphatase inhibitor cocktail (Thermo Fisher Scientific) according to manufacturer's protocol. […] Equal amounts of proteins were used based on the quantification using BCA assay kit (Thermo Fisher Scientific), and the samples were separated by electrophoresis using NuPAGE 4-12% or 8% Bis-Tris gels (Invitrogen). […] The results were analyzed with SuperSignal ECL substrates (Thermo Fisher Scientific) and a ChemiDoc XRS system (Bio-Rad). […]

miR-99b-5p mimic: miRNA mimic of miR-99b-5p (SEQ ID NO: 2, CACCCGUAGAACCGACCUUGCG), purchased from Ambion (listed as RNA, chemistry not given here; listed as Homo sapiens)
mTOR level (Western blot) [1]: downregulated
nuclear mTOR expression (Western blot) ([2]; miR-99b-5p vs NS transfected): significant decrease
nuclear pmTOR expression (Western blot) ([2]; miR-99b-5p vs NS transfected): significant decrease
total mTOR (combined cytoplasmic and nuclear mTOR, Western blot) ([2]; miR-99b-5p vs NS transfected): generalized reduction
cytoplasmic mTOR (Western blot) ([2]; upon miR-99b-5p transfection): slight to no decrease
